Work on `CC(C)n1nnc(NC(=O)C(c2ccccc2)c2ccccc2)n1` yielded a melting point of 175 to 177 °C.
Work on `COC(=O)Cc1ccc(OCc2ccc3ccccc3n2)c(Br)c1` yielded a melting point of 90 °C.
Work on `CN(C)C(=O)c1ccc(CNC(=O)C2Cc3ccccc3N2S(=O)(=O)c2ccc(-c3ccccc3C(F)(F)F)cc2)cc1` (centres undefined) yielded a melting point of 105 to 106 °C.
`CCOc1ccnc(CSc2nc3cc4c(cc3[nH]2)C(C)(C)C(=O)C4(C)C)c1C` gave a melting point of 175 to 176 °C.
In the case of `CC(C)C(=O)c1cccc([N+](=O)[O-])c1`, the melting point is reported as 33 to 35 °C.
In the case of `Cc1cc(-c2cc(C(F)F)n3ncc(-c4nc(-c5ccc(N)nc5)no4)c3n2)ccc1Cl`, the melting point is reported as 243 °C.
`CC1(C)CCC(C)(C)c2cc3c(cc21)CCc1nc(-c2ccc(C(=O)O)cc2)sc1-3` showed a melting point of 275 to 278 °C.
In the case of `O=C(NCCO)c1ccnc(-c2cccc3cc(Cc4cc(F)cc(Cl)c4)sc23)c1`, the melting point is reported as 172 to 173 °C.
Molecule `CCCc1nc(SCCCCC(=O)O)c(C(=O)O)n1Cc1cc2c(cc1Cl)OCO2` has a melting point of 156 °C.
In the case of `O=C1CCC(c2ccc(-c3nccs3)cc2)=NN1`, the melting point is reported as 265 to 266 °C.
`CC(C)c1cccc(C(C)C)c1NC(=O)N(Cc1ccccc1)CC1(c2ncccn2)CCCCC1` gave a melting point of 112 to 114 °C.
With `O=C1c2ccccc2Cc2ccccc2C1Br` (centres undefined) the melting point was 82 to 84 °C.
With `COc1cc([N+](=O)[O-])c(NCCO)c([N+](=O)[O-])c1` the melting point was 104 °C.
`Cc1cc2ccccc2nc1NN` gave a melting point of 128 °C.
Work on `O=[N+]([O-])c1cc(Cl)c(Oc2cc(Cl)c(Br)cc2Cl)cc1NCc1ccccc1` yielded a melting point of 157 °C.
`CC1COCc2nc3c(N)nc4ccc(OCc5cscn5)cc4c3n21` (centres undefined) showed a melting point of 240 to 242 °C.
Molecule `CONC(=O)c1[nH]c(C)c(-c2nc3ccc(Oc4ccccc4)cc3[nH]2)c1C` has a melting point of 166 to 168 °C.
With `CS(=O)(=O)Nc1cccc2c(-c3ccccc3)c([N+](=O)[O-])oc12` the melting point was 169 to 172 °C.
With `CCOC(=O)C(N)N=Nc1ccc(Br)cc1C(=O)c1ccccn1` (centres undefined) the melting point was 156 to 157 °C.
`COC(=O)Nc1nc2ccc(Oc3ccncc3)cc2[nH]1` showed a melting point of 220 to 224 °C.
In the case of `CCOC(=O)c1cc(C)cc(-c2ccc(NC(=O)OCc3ccccc3)cc2)n1`, the melting point is reported as 184 to 185 °C.
With `COc1ccc(CNc2cc(N3CCCC3CO)ccc2C(=O)NCc2ncccn2)cc1Cl` (centres undefined) the melting point was 102 to 107 °C.
`COC(=O)c1ccc(CN(OC)C(=O)C=C(O)C(=O)O)cc1` showed a melting point of 123 to 125 °C.
With `CCCCN(Cc1ccccc1)C(=O)Nc1cccc(Cl)c1O` the melting point was 59 to 62 °C.
Work on `CCCCc1nc2ccccc2n1CCC(=O)O` yielded a melting point of 177 to 178 °C.
With `CN(C)C(=O)c1c(Cl)csc1-c1ncc(C(F)(F)F)cc1Cl` the melting point was 85 to 86 °C.
Work on `CC(C)NCC(O)COc1cccc2nsnc12` (centres undefined) yielded a melting point of 100 to 102 °C.
In the case of `CN(C)CCCC(=O)Nc1nc2c(s1)-c1c(cnn1-c1ccccc1)C2`, the melting point is reported as 218 to 222 °C.
For `CCN(CC)c1ccc(Nc2ncc3ccc(=O)n(CC)c3n2)cc1`, the melting point was 108 to 109 °C.
With `CCCCCCCCCCCCCCCCCc1cc(O)c(CC)c(=O)o1` the melting point was 101 to 102 °C.
Work on `Cc1nc(Cl)c([N+](=O)[O-])c(NCC(C)(C)NC(=O)OC(C)(C)C)c1C` yielded a melting point of 97 to 100 °C.
`CN(C)C(=O)Cc1ccc(CC(=O)O)cc1` gave a melting point of 163 to 165 °C.
In the case of `O=Cc1ccc2c(c1)OCC(=O)N2`, the melting point is reported as 178 to 180 °C.
In the case of `COc1c(C)cc2ccccc2c1C(CC(=O)O)C(=O)O` (centres undefined), the melting point is reported as 159 °C.
With `Cc1nc(C)c(C(O)=C(C#N)c2nn(-c3ccccc3)nc2C)s1` the melting point was 117 to 118 °C.
`CCS(=O)(=O)NCc1ccc2[nH]cc(CCCN3CCN(c4ncncc4OC)C(C)C3)c2c1` (centres undefined) gave a melting point of 202 to 210 °C.
In the case of `CCOC(=O)c1cc2cc(/C=C/C(=O)c3cc(OC)c(OC)c(OC)c3)cc(C(C)CC)c2oc1=O` (centres undefined), the melting point is reported as 138 to 139 °C.
`CCCC(Oc1ccc2c(-c3ccc(Cl)cc3)noc2c1)C(=O)OCC` (centres undefined) gave a melting point of 88 °C.
`CC1(C)[C@H](C=C(Cl)C(F)(F)F)[C@@H]1C(=O)NCc1cccc2c1CCCc1ccccc1-2` (relative stereo) gave a melting point of 65 to 70 °C.
`CON1CCC2(CC1)OC(=O)C(c1cc(C)c(C)cc1C)=C2O` gave a melting point of 199 to 204 °C.
`O=C1Cc2cc(F)c(F)cc2N1` showed a melting point of 187 to 190 °C.
With `Cc1cc(C#N)cc(C)c1Oc1ncnc(Nc2ccc(C#N)cc2)n1` the melting point was 248 to 250 °C.
`O=C(Nc1cccc(OCCCN2CCOCC2)c1)C12CC3CC(CC(C3)C1)C2` showed a melting point of 160 to 164 °C.
For `CCOC(=O)c1c(N2CCN(C(=O)c3cccs3)CC2)c2cc(F)cnc2n(CC(=O)c2ccccc2)c1=O`, the melting point was 262 °C.
For `CC[C@@H]1N(c2ccc(C#N)c(Cl)c2C)C(=O)C[C@]1(C)O`, the melting point was 156 to 158 °C.
Molecule `C=CCCCC(C#N)(C#N)Cc1ccc(C#N)cc1` has a melting point of 91.5 °C.
In the case of `Cn1c(C#N)c(-c2ccc(F)cc2)c2cccnc2c1=O`, the melting point is reported as 231 to 232 °C.
Work on `CCCC(=O)c1cnc2c(OC)cccc2c1Nc1ccccc1OC` yielded a melting point of 159 to 161 °C.
For `CC(=O)OCc1c(-c2cc(Nc3cc(CN4CCC4)n(C)n3)c(=O)n(C)n2)cccc1-n1ncc2cc(C(C)(C)C)cc(F)c2c1=O`, the melting point was 214 to 217 °C.
`CC(C)(C)c1cc(C=[N+]([O-])C(C)(C)C)c(O)c(C(C)(C)C)c1` gave a melting point of 235 °C.
`CCCn1c(=O)c2ccc(NC(=O)CC3CCCC3)cc2n1Cc1ccc(C(=O)O)cc1OC` showed a melting point of 122 to 125 °C.
Work on `CCCCOCCOc1ccc(-c2ccc(N3CC(C)C(C)C3)c(C=C(C)C(=O)O)c2)cc1` (centres undefined) yielded a melting point of 126 to 128 °C.
With `CC(C)N1Cc2c(Cl)nc(Cl)nc2C1=O` the melting point was 122 to 123 °C.
Molecule `Cc1ccc(-c2ncc3c(n2)CCCC3)nc1Br` has a melting point of 125 to 128 °C.
In the case of `COc1cc(Nc2nccc(-c3cccc(N)c3)n2)cc(OC)c1OC`, the melting point is reported as 166 to 167 °C.
In the case of `CC1(C)CCC(C)(C)c2c(OCc3ccc(F)cc3)cc(C(O)C#Cc3ccc(C(=O)O)cc3)cc21` (centres undefined), the melting point is reported as 188 °C.
Molecule `CCC1CC2(C)C(O)CCC2C2CCc3cccc(O)c3C12` (centres undefined) has a melting point of 155 to 157 °C.
Molecule `CCNC(=S)Nc1nccs1` has a melting point of 135 to 136 °C.
`CS(=O)c1ccc(COc2cccc(C(=O)Nc3ccc(C#N)cc3)c2)cc1` (centres undefined) showed a melting point of 174 to 175 °C.
Molecule `CC(=O)C1=C(O)C(=C(C)Nc2ccc(N)cc2)C(=O)OC1=O` has a melting point of 215 to 218 °C.
Work on `COc1c(C(N)=O)sc(C(N)=O)c1N=NN(C)C` yielded a melting point of 226 to 228 °C.
`COc1ccc(NC(=O)NCc2ccc3c(c2)CN(C2CCC(=O)NC2=O)C3=O)cc1` (centres undefined) gave a melting point of 255 to 257 °C.
`COc1cc(C=C2SC(=O)NC2=O)cc(OC)c1O` gave a melting point of 248 to 249 °C.
`CC1(C)Oc2cc3nonc3cc2C(NC(=O)NCCCCl)C1O` (centres undefined) showed a melting point of 83 to 85 °C.
For `COc1nc(NCCCN2CCOCC2)nc(OC)c1NC(=O)c1coc(Oc2cccc(C(C)(C)C)c2)n1`, the melting point was 85 °C.
With `Cc1cc(N)c(OCc2ccccc2)c(Cl)c1C` the melting point was 57 to 58 °C.
In the case of `CCCCCCCCC1OC(=O)c2cc(NC(C)=O)ccc21` (centres undefined), the melting point is reported as 133 to 134 °C.
In the case of `C=CCN1CC(c2ccc([N+](=O)[O-])cc2F)CCS1(=O)=O` (centres undefined), the melting point is reported as 121 °C.
In the case of `Cc1cc(-c2ccc(Cl)cc2)sc1C(=O)O`, the melting point is reported as 245 to 246 °C.
For `COc1cc(OC)c(-c2ccc(C)s2)cc1C=CC(=O)c1ccc(C(=O)O)cc1`, the melting point was 213 to 215 °C.
Work on `O=C(O)C(S)c1cc(Cl)ccc1Cl` (centres undefined) yielded a melting point of 129 to 130 °C.
In the case of `C/C(C=O)=C\c1ccc([N+](=O)[O-])cc1`, the melting point is reported as 112 to 114 °C.
Work on `CCOC(=O)c1nc(SC)[nH]c(=O)c1OCc1ccccc1` yielded a melting point of 109 to 110 °C.
Molecule `COc1ccc2c(CCN3CC=C(c4c[nH]c5cc(F)ccc45)CC3)coc2c1` has a melting point of 181 °C.
`CCOC(=O)c1nnc2ccc(NC(C)C)cc2c1O` gave a melting point of 170 to 171 °C.
`CN(c1cccc2cc(C3=NCC4(CCN(Cc5nccn5C)CC4)S3)[nH]c12)S(=O)(=O)c1cccs1` gave a melting point of 103 °C.
With `CCOC(=O)COc1ccc(N)cc1` the melting point was 157 to 158 °C.
`NC(=O)NCc1cc2cc(CN3CCOCC3)cc3c(=O)c(C(=O)NCc4ccc(Cl)cc4)cn1c23` gave a melting point of 250 to 252 °C.
In the case of `COC(C)c1c(C(C)C)nc(C(C)C)c(CO)c1-c1ccc(F)cc1` (centres undefined), the melting point is reported as 151 to 153 °C.
For `C[C@@H]1C[C@@H](O)CC(C)(C)C1=O`, the melting point was 49 to 50 °C.
Molecule `COc1cccc(C(=C/C=C/C(=O)NCCCCc2cccnc2)c2cccc(OC)c2)c1` has a melting point of 69 to 73 °C.
Work on `CC(=O)Oc1cccc(C(=O)O)c1C` yielded a melting point of 147 to 148 °C.
`CCC(=O)N1N=C(c2ccc(N)c(C)c2)c2cc3c(cc2C[C@@H]1C)OCO3` showed a melting point of 176 to 178 °C.
`O=C(O)c1ccc(Br)c(S)c1` showed a melting point of 315 to 317 °C.
With `CCOC(=O)c1csc(-c2ccc3nc(CC(C)C)c(CN)c(-c4ccc(C)cc4)c3c2)n1` the melting point was 150 to 152 °C.
Work on `NC(=O)c1ccc(-c2ccc(C(CC3CCOCC3)c3ccc(S(=O)(=O)C4CC4)cc3)[nH]2)nc1` (centres undefined) yielded a melting point of 136 to 138 °C.
In the case of `CC(C)Oc1ccc(-c2nn(C(C)c3oc4cccc(N5CCOCC5)c4c(=O)c3-c3ccccc3)c3ncnc(N)c23)cc1F` (centres undefined), the melting point is reported as 211 to 214 °C.
`COc1cc2c(cc1OC)C(CNC(=O)N(C)O)CC2` (centres undefined) showed a melting point of 120 to 121 °C.
`CC(Sc1cc(C(C)(C)C)c(O)c(C(C)(C)C)c1)C(=O)O` (centres undefined) showed a melting point of 110 to 113 °C.
Work on `COc1cc(CCN2CCN(c3nsc4ccccc34)CC2)c(NC(=O)Nc2ccccc2C)cc1OC` yielded a melting point of 200 °C.
For `CCN(CCOC)C(=O)c1cc(-c2ccccc2)c(=O)n2c1-c1cc(Cl)ccc1CN2`, the melting point was 184 to 185 °C.
With `CC#CCOc1ccc(C(=O)N(C)C[C@@H](C(=O)NO)N2CCN(S(C)(=O)=O)CC2)cc1` the melting point was 145 °C.
Molecule `Cc1nc(C)c(Cl)c(NCc2nccc(SCCOCCn3c([N+](=O)[O-])cnc3C)c2C)n1` has a melting point of 160 to 163 °C.
`Cc1nc(NC(=O)c2ccccc2OC(F)(F)F)sc1C(=O)NCc1ccccc1` gave a melting point of 140 to 141 °C.
In the case of `CCCCc1oc2ccccc2c1C(=O)NCc1ccc2c(-c3ccccc3)c(OCC#N)ccc2c1`, the melting point is reported as 135 to 138 °C.
`CC(=O)N(c1cc2occc(=O)c2cc1Oc1ccc(F)cc1F)S(C)(=O)=O` gave a melting point of 176 to 178 °C.
`CCCCCc1n[nH]c(CCCCC)n1` gave a melting point of 66 to 68 °C.
Work on `N#Cc1cnn(-c2c(Cl)cc(C(F)(F)F)cc2Cl)c1N1CCC1=O` yielded a melting point of 162 to 164 °C.
For `COC(=O)C1=C(C)NC(C)=C(P2(=O)OCCCO2)C1c1cccc([N+](=O)[O-])c1` (centres undefined), the melting point was 221 to 223 °C.
